In patent US20090269362A1, “Method for Controlling Immunodominance” (priority 2005, published 2009):

What was measured:
lymph node cells = assay: IL-2 ELISPOT after immunization with peptide (cross reactivity of WT and variant); format: in vivo, mouse; settings: mice immunized with WT or variant peptide
sI-A^d [1] = settings: pH 5.3, 37° C., FITC peptide from sI-A^d
CD4 T cells [2] = assay: IL-2 ELISPOT of draining lymph node cells after immunization with MalE:insert protein; format: in vivo, mouse; settings: mice immunized with MalE protein
[3] = test system: peptide specific T cell hybridomas; assay: T cell hybridoma assay (IL-2 production, CTLL/MTT); format: cell-based, mouse
sI-A^d [4] = assay: Peptide competition with FITC-HA[126-138] for binding to soluble I-A^d; design: species or system mouse; settings: 1 μM FITC-HA[126-138], 20 nM soluble I-A^d
Method: B. The percentage of inhibition of binding of 1 μM N-terminal FITC-HA[126-138] to sI-A^d by the unlabeled competitor peptide was plotted against the concentration of unlabeled inhibitory peptide. Data is represented as a Hill Plot (Hill, J Physiol 40, iv-vii, 1910), and is the average of 2 independent experiments
Soluble I-A^d (20 nM) and 1 μM FITC-HA[126-138] were used for competition assays, which is in the titratable range of peptide and class II molecules. Unlabeled competitor peptides at a final concentrations ranging between 0-500 μM were mixed, and after 16-20 h of incubation at 37° C., the sI-A^d-FITC-HA[126-138] complex was separated from free peptide and quantified as described above. Inhibition by competitor peptides was calculated using the Hill equation ((Hill, J Physiol 40, iv-vii, 1910), with the IC50 value the concentration of unlabeled competitor peptide required to achieve 50% inhibition of the labeled peptide binding to class II molecules.

CD4 T cells [5] = assay: IL-2 ELISPOT after immunization with OVA protein; format: in vivo, mouse; settings: mice immunized with OVA protein
Method: Groups of 2 BALB/c mice were immunized in the footpad with (A) 200 μg/mL OVA protein, (B) 200 μg/mL of the indicated MalE protein, or (D and E) 5 nmol of the indicated peptide emulsified in 50 μL PBS:CFA. The number of IL-2 producing cells at day 10 was determined by 16 h in vitro stimulation of CD4 purified cells with syngeneic spleen cells and (A) 200 μg/mL protein or 12.5 μM peptide, (B) 200 μg/mL protein or 5 μM peptide, or (D and E) the indicated amount of peptide and quantified using IL-2 ELISPOT assays with background subtracted. (A and D) Data represents the mean counts of two separate cell dilutions ([…] and 1.25×10^5) of triplicate wells normalized as indicated. […] Data are representative of at least 2 independent experiments.
To provide another example of a cryptic epitope that can gain immunodominance by simply changing its kinetic stability with I-A^d, one of the peptide registers contained within the prototypic I-A^d-restricted peptide OVA [323-339] (Jenkins et al., Annu Rev Immunol 19, 23-45, 2001; Sette et al., J Immunol 142, 35-40, 1988) was studied. Several studies (McFarland et al., Biochemistry 38, 16663-16670, 1999; Robertson et al., J Immunol 164, 4706-4712, 2000) have shown that this long peptide contains several alternative registers, including the most amino terminal segment that was co-crystallized with I-A^d (Scott et al., Immunity 1, 73-83, 1998). […]

sI-A^d, sequence (P04228 24-111 limits assumed): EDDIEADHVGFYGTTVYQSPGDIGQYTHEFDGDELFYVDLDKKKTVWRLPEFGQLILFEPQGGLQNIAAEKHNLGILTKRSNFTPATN
sI-A^d, sequence (P01921 28-122 limits assumed, further chain): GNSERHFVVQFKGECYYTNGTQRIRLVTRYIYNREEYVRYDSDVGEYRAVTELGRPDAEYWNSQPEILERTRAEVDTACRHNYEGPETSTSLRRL

A332I, I334V: OVA [327-339] variant with substitutions at P4 and P6 (AVHAAHIEVNEAG; UniProt P01012 327-339, looked up, variant A332I I334V)
cross reactivity between WT and variant peptide after peptide immunization (in words) (lymph node cells): cross-reacted back onto the WT OVA peptide | t1/2 (half-life, kinetic stability) of peptide with I-A^d (sI-A^d [1]): greater than 80 h | immunogenicity of peptide within MalE (in words) (CD4 T cells [2]): immunodominant peptide | stimulation of specific T cell hybridoma by soluble peptide (in words) ([3]; peptide presented by I-A^d expressing cells): recognized by the 3DO11.10 T cell hybridoma

AMKRHGLDNYRGYSL [HEL [11-25], hen-egg lysozyme [11-25], prototypic cryptic peptide]
t1/2 (half-life, kinetic stability) of peptide with I-A^d (sI-A^d [1]): 6 h | immunogenicity of peptide within MalE (in words) (CD4 T cells [2]): failure in immunogenicity | reactivity of specific T cell hybridoma to peptide inserted into MalE (in words) ([3]; MalE:insert protein, BALB/c spleen as APCs): gained reactivity | competition with HA [126-138] for binding to I-A^d (in words) (sI-A^d [4]): competed well

HEL R14Q, G22S: HEL [11-25] variant with changes at P1 and P9 (AMKQHGLDNYRSYSL; UniProt P00698 29-43, looked up, variant R14Q G22S)
t1/2 (half-life, kinetic stability) of peptide with I-A^d (sI-A^d [1]): 11 h | immunogenicity of peptide within MalE (in words) (CD4 T cells [2]): remained non-immunogenic

HEL [20-35]: cryptic epitope of hen-egg lysozyme (YRGYSLGNWVCAAKFE; UniProt P00698 38-53, looked up, fragment)
t1/2 (half-life, kinetic stability) of peptide with I-A^d (sI-A^d [1]): 4 h | competition with HA [126-138] for binding to I-A^d (in words) (sI-A^d [4]): competed poorly

OVA [273-288]: immunodominant I-Ad restricted epitope from chicken ovalbumin (VMEERKIKVYLPRMKM; UniProt P01012 273-288, looked up, fragment)
t1/2 (half-life, kinetic stability) of peptide with I-A^d (sI-A^d [1]): 160 h

OVA [327-339]: carboxyterminal register of OVA [323-339] recognized by the 3DO11.10 T cell (AVHAAHAEINEAG; UniProt P01012 327-339, looked up, fragment)
t1/2 (half-life, kinetic stability) of peptide with I-A^d (sI-A^d [1]): 0.3 h | percent of T cells raised against OVA that recognize the peptide (CD4 T cells [5]): Less than 1%

R14Q, N19A, G22S: HEL [11-25] variant with changes at P1, P6, and P9 (AMKQHGLDAYRSYSL; UniProt P00698 29-43, looked up, variant R14Q N19A G22S)
cross reactivity between WT and variant peptide after peptide immunization (in words) (lymph node cells): a significant portion of the T cells elicited were non-reactive with the WT HEL peptide | t1/2 (half-life, kinetic stability) of peptide with I-A^d (sI-A^d [1]): 35 h | immunogenicity of peptide within MalE (in words) (CD4 T cells [2]): significant gain in immunogenicity
